Laboratory results as given in patent publication US11622984B2, “Composition comprising aster sphathulifolius maxim extract for preventing, improving, or treating muscular diseases or for improving muscular functions” (NEWTREE CO., LTD., priority 2018, dated 2023).

Tests used:
Type in all cases: in vivo, C57BL/6 mice
[1] = system: muscle atrophy mouse model; experiment: Muscle tissue weight in leg-immobilization muscle atrophy mouse model
Procedure: (§1) An animal experiment was conducted to confirm whether an Aster spathulifolius extract improved muscle atrophy in a muscle atrophy mouse model. Five-week-old male C57BL/6 mice were adapted to an animal laboratory environment for one week, and then divided into five groups according to an experimental condition, and immobilization of the legs to induce muscle atrophy and oral administration of samples were performed for two weeks. Specifically, experimental groups were divided into an untreated control group (normal group, Cont), a muscle atrophy induced group (induction group, IM), a positive control group (HMB administered group, HMB 370) induced with muscle atrophy and administered with beta-hydroxy beta-methylbutyrate (HMB) (370 mg/kg), a group (Aster spathulifolius low-dose administered group, AS 100) induced with muscle atrophy and administered with a low dose (100 mg/kg) of Aster spathulifolius extract, and a group (Aster spathulifolius high-dose administered group, AS 200) induced with muscle atrophy and administered with a high dose (200 mg/kg) of Aster spathulifolius extract. Immobilization of the legs was performed by applying a fixing tool manufactured by using a 1.5 ml microfuge tube, clips, and a Velcro tape as shown in References (Disease models & mechanisms, 8(9), 1059-1069, 2015) to one hind leg of the mouse. All samples were dissolved in 0.5% carboxymethylcellulose (CMC) and orally administered once a day for 14 days from a day of application of leg fixation. After 2 weeks of leg fixation and oral administration of the sample, the gastrocnemius and the quadriceps of one hind leg were extracted, and the weights thereof were measured, normalized in proportion to the body weight, and then compared and shown in FIG. 1. As a result, compared to the normal group (Cont), the induction group (IM) induced muscle atrophy, resulting in a weight loss of about 40% in the gastrocnemius and about 33% in the quadriceps in proportion to the body weight. In the HMB-administered group (HMB 370), as the positive control group, the gastrocnemius decreased by about 24% and the quadriceps decreased by about 17%, showing about 16% and 16% of a muscle atrophy protective ability, respectively. On the other hand, in the low-dose group of Aster spathulifolius (AS 100), the gastrocnemius decreased by about 27% and the quadriceps decreased by about 22%. In the high-dose group of Aster spathulifolius (AS 200), the gastrocnemius decreased by about 25% and the quadriceps decreased by about 18%.

[2] = system: muscle atrophy mouse model; experiment: Cross-sectional area of muscle fibers (H&E staining, image J) in muscle atrophy mouse model; conditions: 370 mg/kg oral, 14 days
Procedure: as §1
Histological analysis was conducted to confirm whether an Aster spathulifolius extract improved the reduction in cross-sectional area of muscle fibers in a muscle atrophy mouse model. The gastrocnemius and quadriceps tissues extracted in Example 2 above were fixed with 4% paraformaldehyde and then subjected to hematoxylin and eosin staining (H&E staining), and thereafter, the cross-sectional area of the dyed muscle fibers was quantified through image J software, and the results were shown in FIGS. 2 and 3.

[3] = system: atrogin-1; experiment: qRT-PCR mRNA expression in gastrocnemius of muscle atrophy mouse model; conditions: 370 mg/kg oral, 14 days, induction group about three times
Procedure: (§2) An animal experiment was conducted to confirm whether an Aster spathulifolius extract improved muscle atrophy in a muscle atrophy mouse model. Five-week-old male C57BL/6 mice were adapted to an animal laboratory environment for one week, and then divided into five groups according to an experimental condition, and immobilization of the legs to induce muscle atrophy and oral administration of samples were performed for two weeks. […] After 2 weeks of leg fixation and oral administration of the sample, the gastrocnemius and the quadriceps of one hind leg were extracted, and the weights thereof were measured, normalized in proportion to the body weight, and then compared and shown in FIG. 1. […]
(§3) To confirm whether the Aster spathulifolius extract improved the mRNA expression levels of muscle atrophy-related factors, muscle ring finger-1 (MuRF-1) and Atrogin-1, in a muscle atrophy mouse model, quantitative real-time PCR (qRT-PCR) was performed. […]

[4] = system: murf-1; experiment: as above; conditions: 370 mg/kg oral, 14 days, induction group about 3 times
Procedure: as §2, §3

[5] = system: p-mTOR; experiment: Western blot protein expression in gastrocnemius of muscle atrophy mouse model; conditions: 370 mg/kg oral, 14 days
Procedure: as §2, with “weeks. Specifically, experimental groups were divided into an untreated control group (normal group, Cont), a muscle atrophy induced group (induction group, IM), a positive control group (HMB administered group, HMB 370) induced with muscle atrophy and administered with beta-hydroxy beta-methylbutyrate (HMB) (370 mg/kg), a group (Aster spathulifolius low-dose administered group, AS 100) induced with muscle atrophy and administered with a low dose (100 mg/kg) of Aster spathulifolius extract, and a group (Aster spathulifolius high-dose administered group, AS 200) induced with muscle atrophy and administered with a high dose (200 mg/kg) of Aster spathulifolius extract.” for “weeks.”

CC(C)(O)CC(=O)O [HMB, beta-hydroxy beta-methylbutyrate]
quadriceps weight decrease in proportion to body weight vs normal group ([1]; 370 mg/kg oral once a day, 14 days leg fixation, induction group about 33%): about 17% | gastrocnemius weight decrease in proportion to body weight vs normal group ([1]; 370 mg/kg oral once a day, 14 days leg fixation, induction group about 40%): about 24% | muscle atrophy protective ability (muscle weight), gastrocnemius ([1]; 370 mg/kg oral, 14 days): about 16% | muscle atrophy protective ability (muscle weight), quadriceps ([1]; 370 mg/kg oral, 14 days): about 16% | protective ability against the cross-sectional area of muscle fibers, gastrocnemius [2]: 17% | protective ability against the cross-sectional area of muscle fibers, quadriceps [2]: 19% | reduction in muscle fiber size (H&E staining) ([2]; both muscle tissues): the reduction in muscle fiber size was alleviated | decrease of cross-sectional area of muscle fiber vs normal group, quadriceps ([2]; induction group about 47%): about 28% | decrease of cross-sectional area of muscle fiber vs normal group, gastrocnemius ([2]; induction group about 50%): about 33% | atrogin-1 gene expression relative to normal group [3]: about 1.3 times | murf-1 gene expression relative to normal group [4]: about 1.7 times | p-mTOR protein expression [5]: large increase
